The record followed here is publication PMC7998309, “Structural-Based Optimizations of the Marine-Originated Meridianin C as Glucose Uptake Agents by Inhibiting GSK-3β” (Marine Drugs, 2021).

What is called CC50 is the concentration that lowers cell viability or growth by half. Higher therefore signals better tolerance by the cells. As usually defined, the melting point is the temperature of the solid-liquid transition.

Data set [1] in a line: MTT assay for cell viability (cytotoxicity). Format: cell-based, human. The note with it: human; HepG2 cells, 48 h incubation, MTT. On the procedure:
The hepatocyte cell line HepG2 cells obtained from the Type Culture Collection of the Chinese Academy of Sciences (Shanghai, China) were maintained in high-glucose DMEM (Gibco) supplemented with 10% fetal bovine serum (FBS) and 1% penicillin-streptomycin in an atmosphere of 5% CO2 at 37 °C.
Into a 96-well plate, 1 × 10^3 HepG2 cells per well were seeded. After 24 h, stock solutions of test compounds in DMSO were diluted in DMEM to ≤0.1% final DMSO concentration. Cells were treated with various concentrations (2.5–25 µM) of tested compounds for 48 h, and the MTT solution (0.5 mg/mL) was added. After 4 h of incubation at 37 °C for MTT-formazan formation, the supernatant was discarded and 100 µL of DMSO was applied into each well to dissolve formazan crystals. Absorbance at 490 nm was determined spectrophotometrically by using a microplate reader (Epoch, BioTek Instruments, Inc., Winooski, VT, USA).
(Formazan colour is commonly taken as a measure of viable cells.)

Where only a bound is given, the exact number is not on record here.

Consider `Nc1ncc(-c2ccc(NC(=O)c3ccc(Br)cc3)cc2)c(-c2c[nH]c3ccc(Br)cc23)n1` [A15, N-(4-(2-amino-4-(5-bromo-1H-indol-3-yl)pyrimidin-5-yl)phenyl)-4-bromobenzamide], for which the melting point is 276.4 to 277.3 °C. The compound also had a CC50 at 48 h in data set [1] of 7.1 µM.
`Nc1ncc(-c2ccc(NC(=O)c3ccccc3C(F)(F)F)cc2)c(-c2c[nH]c3ccc(Br)cc23)n1` [A16, N-(4-(2-amino-4-(5-bromo-1H-indol-3-yl)pyrimidin-5-yl)phenyl)-2-(trifluoromethyl) Benzamide] gave a melting point of 163.6 to 164.3 °C. Moreover, in data set [1], the CC50 at 48 h amounted to 9.9 µM.
The compound `Nc1ncc(-c2ccc(NC(=O)c3cccc(C(F)(F)F)c3)cc2)c(-c2c[nH]c3ccc(Br)cc23)n1` [A17, N-(4-(2-amino-4-(5-bromo-1H-indol-3-yl)pyrimidin-5-yl)phenyl)-3-(trifluoromethyl) Benzamide] had a melting point of 172.6 to 173.3 °C. Further, the CC50 at 48 h in data set [1] turned out to be 14.3 µM.
The compound `Nc1ncc(-c2ccc(NC(=O)c3ccc(C(F)(F)F)cc3)cc2)c(-c2c[nH]c3ccc(Br)cc23)n1` [A18, N-(4-(2-amino-4-(5-bromo-1H-indol-3-yl)pyrimidin-5-yl)phenyl)-4-(trifluoromethyl) Benzamide] returned a melting point of 312.7 to 313.4 °C. In data set [1], this compound had a CC50 at 48 h of 4.2 µM.
For `Cc1ccccc1C(=O)Nc1ccc(-c2cnc(N)nc2-c2c[nH]c3ccc(Br)cc23)cc1` [A19, N-(4-(2-amino-4-(5-bromo-1H-indol-3-yl)pyrimidin-5-yl)phenyl)-2-methylbenzamide] the same measures were 170.7 to 171.6 °C and 10.3 µM.
For the compound `Cc1cccc(C(=O)Nc2ccc(-c3cnc(N)nc3-c3c[nH]c4ccc(Br)cc34)cc2)c1` [A20, N-(4-(2-amino-4-(5-bromo-1H-indol-3-yl)pyrimidin-5-yl)phenyl)-3-methylbenzamide], the melting point is 211.8 to 212.9 °C. The compound also gave a CC50 at 48 h in data set [1] of 13.2 µM.
For `COc1ccccc1C(=O)Nc1ccc(-c2cnc(N)nc2-c2c[nH]c3ccc(Br)cc23)cc1` [A22, N-(4-(2-amino-4-(5-bromo-1H-indol-3-yl)pyrimidin-5-yl)phenyl)-2-methoxybenzamide] the same measures were 154.9 to 155.6 °C and more than 25 µM.
As for `COc1cccc(C(=O)Nc2ccc(-c3cnc(N)nc3-c3c[nH]c4ccc(Br)cc34)cc2)c1` [A23, N-(4-(2-amino-4-(5-bromo-1H-indol-3-yl)pyrimidin-5-yl)phenyl)-3-methoxybenzamide], the melting point was 172.6 to 173.3 °C. The compound also came in with a CC50 at 48 h in data set [1] of 14.7 µM.
Taken in the same sequence, the figures for `COc1ccc(C(=O)Nc2ccc(-c3cnc(N)nc3-c3c[nH]c4ccc(Br)cc34)cc2)cc1` [A24, N-(4-(2-amino-4-(5-bromo-1H-indol-3-yl)pyrimidin-5-yl)phenyl)-4-methoxybenzamide] were 184.6 to 185.3 °C and 4.3 µM.
For the compound `Nc1ncc(-c2ccc(NC(=O)c3cc(F)ccc3F)cc2)c(-c2c[nH]c3ccc(Br)cc23)n1` [A25, N-(4-(2-amino-4-(5-bromo-1H-indol-3-yl)pyrimidin-5-yl)phenyl)-2,5-difluorobenzamide], the melting point lay within 163.5 to 164.3 °C. It took 8.9 µM to reach half-maximal cytotoxicity in data set [1] (CC50 at 48 h).
Taken in the same sequence, the figures for `Nc1ncc(-c2ccc(NC(=O)c3cccs3)cc2)c(-c2c[nH]c3ccc(Br)cc23)n1` [A27, N-(4-(2-amino-4-(5-bromo-1H-indol-3-yl)pyrimidin-5-yl)phenyl) thiophene-2-carboxamide] were 303.8 to 304.4 °C and 10 µM.
For `Nc1ncc(-c2ccc(NC(=O)c3cc4ccccc4cn3)cc2)c(-c2c[nH]c3ccc(Br)cc23)n1` [A28, N-(4-(2-amino-4-(5-bromo-1H-indol-3-yl)pyrimidin-5-yl)phenyl) isoquinoline-3-carboxamide] the same measures were 189.3 to 190.2 °C and more than 25 µM.
Taken in the same sequence, the figures for `Nc1ncc(-c2ccc(NC(=O)c3ccc4ccccc4c3)cc2)c(-c2c[nH]c3ccc(Br)cc23)n1` [A29, N-(4-(2-amino-4-(5-bromo-1H-indol-3-yl)pyrimidin-5-yl)phenyl)-2-naphthamide] were 189.3 to 190.2 °C and more than 25 µM.
`Clc1cccc(Nc2nccc(-c3c[nH]c4ccc(Br)cc34)n2)c1` [B5, 4-(5-Bromo-1H-indol-3-yl)-N-(3-chlorophenyl) pyrimidin-2-amine]: the melting point is 210.3 to 211.4 °C. Also, the CC50 at 48 h in data set [1] was more than 25 µM.
Taken in the same sequence, the figures for `Brc1cccc(Nc2nccc(-c3c[nH]c4ccc(Br)cc34)n2)c1` [B8, 4-(5-Bromo-1H-indol-3-yl)-N-(3-bromophenyl) pyrimidin-2-amine] were 214.8 to 215.6 °C and 18.7 µM.
Taken in the same sequence, the figures for `FC(F)(F)c1cccc(Nc2nccc(-c3c[nH]c4ccc(Br)cc34)n2)c1` [B11, 4-(5-Bromo-1H-indol-3-yl)-N-(3-(trifluoromethyl)phenyl) pyrimidin-2-amine] were 171.8 to 172.3 °C and 17.6 µM.
Compound `FC(F)(F)c1ccc(Nc2nccc(-c3c[nH]c4ccc(Br)cc34)n2)cc1` [B12, 4-(5-Bromo-1H-indol-3-yl)-N-(4-(trifluoromethyl)phenyl) pyrimidin-2-amine] gave a melting point of 279.5 to 280.3 °C. In data set [1], this compound returned a CC50 at 48 h of more than 25 µM.
For `Cc1cccc(Nc2nccc(-c3c[nH]c4ccc(Br)cc34)n2)c1` [B14, 4-(5-Bromo-1H-indol-3-yl)-N-(m-tolyl) pyrimidin-2-amine] the same measures were 141.5 to 142.3 °C and 8.6 µM.
For `Cc1ccc(Nc2nccc(-c3c[nH]c4ccc(Br)cc34)n2)cc1` [B15, 4-(5-Bromo-1H-indol-3-yl)-N-(p-tolyl) pyrimidin-2-amine] the same measures were 227.8 to 228.6 °C and 15.5 µM.
As to `COc1cccc(Nc2nccc(-c3c[nH]c4ccc(Br)cc34)n2)c1` [B17, 4-(5-Bromo-1H-indol-3-yl)-N-(3-methoxyphenyl) pyrimidin-2-amine], the melting point was in the range of 208.7 to 209.3 °C. This compound registered a CC50 at 48 h in data set [1] of 10.6 µM.
For `CC(C)c1cccc(Nc2nccc(-c3c[nH]c4ccc(Br)cc34)n2)c1` [B20, 4-(5-Bromo-1H-indol-3-yl)-N-(3-isopropylphenyl) pyrimidin-2-amine] the same measures were 152.6 to 153.4 °C and 12.5 µM.
For `CC(C)c1ccc(Nc2nccc(-c3c[nH]c4ccc(Br)cc34)n2)cc1` [B21, 4-(5-Bromo-1H-indol-3-yl)-N-(4-isopropylphenyl) pyrimidin-2-amine] the same measures were 218.7 to 219.4 °C and 13 µM.
For `Brc1ccc2[nH]cc(-c3ccnc(Nc4ccccc4)n3)c2c1` [B22, 4-(5-Bromo-1H-indol-3-yl)-N-phenylpyrimidin-2-amine] the same measures were 197.6 to 198.7 °C and 10.4 µM.
In the case of `Fc1cc(F)cc(Nc2nccc(-c3c[nH]c4ccc(Br)cc34)n2)c1` [B23, 4-(5-Bromo-1H-indol-3-yl)-N-(3,5-difluorophenyl) pyrimidin-2-amine], the melting point was in the range of 251.3 to 252.2 °C. It took 16.1 µM to reach half-maximal cytotoxicity in data set [1] (CC50 at 48 h).
